Assay results as given in ChEMBL document CHEMBL1201862, “PubChem BioAssay data set” (2004).
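These data come from cells grown in 96-well plates and exposed to compound for 48 hours at five concentrations. GI50 marks 50% less growth.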 Calls of active or inactive are those of the source. No stated cut-off is given here; in the data, active = GI50 up to about 1.1 µM and inactive = higher.

What was measured:
Assay in all cases: NCI anticancer screen, dose series, 48 h
[1] = system: MDA-MB-231
[2] = system: UACC-62
[3] = system: HT-29
[4] = system: HL-60
[5] = system: NCI-H23
[6] = system: SF-268
[7] = system: SK-MEL-2
[8] = system: UO-31
[9] = system: M14
[10] = system: PC-3
[11] = system: NCI-H226
[12] = system: SNB-75
[13] = system: HCT-116
[14] = system: A549
[15] = system: EKVX
[16] = system: SW-620
[17] = system: BT-549
[18] = system: NCI-H460
[19] = system: U-251
[20] = system: LOX IMVI

SMILES: O=C(Nc1ccc(Nc2ccc3c(c2)C(=O)c2ccccc2C3=O)c2c1C(=O)c1ccccc1C2=O)c1ccccc1
- GI50 [1]: 46.6 µM (inactive)
- GI50 [2]: > 100 µM (inactive)
- GI50 [3]: 43.7 µM (inactive)
- GI50 [4]: 17.7 µM (inactive)
- GI50 [5]: 79.4 µM (inactive)
- GI50 [6]: 44.9 µM (inactive)
- GI50 [7]: 11.9 µM (inactive)
- GI50 [8]: > 100 µM (inactive)
- GI50 [9]: > 91.8 µM (inactive)
- GI50 [10]: 12.1 µM (inactive)
- GI50 [11]: > 100 µM (inactive)
- GI50 [12]: 16.6 µM (inactive)
- GI50 [13]: > 100 µM (inactive)
- GI50 [14]: > 72.6 µM (inactive)
- GI50 [15]: > 100 µM (inactive)
- GI50 [16]: 38.6 µM (inactive)
- GI50 [17]: > 100 µM (inactive)
- GI50 [18]: 6.47 µM (inactive)
- GI50 [19]: 19.5 µM (inactive)
- GI50 [20]: > 82.2 µM (inactive)

SMILES: Cc1cn(CCCCCOC(=O)NC(CCCNC(N)=O)C(=O)O)c(=O)[nH]c1=O (stereo not drawn)
- GI50 [1]: > 100 µM (inactive)
- GI50 [2]: > 100 µM (inactive)
- GI50 [3]: > 100 µM (inactive)
- GI50 [4]: > 100 µM (inactive)
- GI50 [5]: > 100 µM (inactive)
- GI50 [6]: > 100 µM (inactive)
- GI50 [7]: > 100 µM (inactive)
- GI50 [8]: > 100 µM (inactive)
- GI50 [9]: > 100 µM (inactive)
- GI50 [10]: > 100 µM (inactive)
- GI50 [11]: > 100 µM (inactive)
- GI50 [12]: > 100 µM (inactive)
- GI50 [13]: > 100 µM (inactive)
- GI50 [14]: > 100 µM (inactive)
- GI50 [15]: > 100 µM (inactive)
- GI50 [16]: > 100 µM (inactive)
- GI50 [17]: > 100 µM (inactive)
- GI50 [18]: > 100 µM (inactive)
- GI50 [19]: > 100 µM (inactive)
- GI50 [20]: > 100 µM (inactive)

SMILES: OC1OC(c2ccc[nH]2)C(F)(F)C(F)(F)C1(F)F (stereo not drawn)
- GI50 [1]: > 100 µM (inactive)
- GI50 [2]: > 100 µM (inactive)
- GI50 [3]: > 100 µM (inactive)
- GI50 [4]: 43.5 µM (inactive)
- GI50 [6]: > 100 µM (inactive)
- GI50 [7]: > 100 µM (inactive)
- GI50 [8]: 97.7 µM (inactive)
- GI50 [9]: > 100 µM (inactive)
- GI50 [10]: > 100 µM (inactive)
- GI50 [11]: > 100 µM (inactive)
- GI50 [12]: 60.8 µM (inactive)
- GI50 [13]: > 100 µM (inactive)
- GI50 [14]: > 100 µM (inactive)
- GI50 [15]: > 100 µM (inactive)
- GI50 [16]: > 100 µM (inactive)
- GI50 [17]: > 100 µM (inactive)
- GI50 [18]: > 100 µM (inactive)
- GI50 [19]: > 100 µM (inactive)
- GI50 [20]: > 100 µM (inactive)

SMILES: CC1=NN(c2nc(N)nc(C(C)Cl)n2)C(C)(C)C1 (stereo not drawn)
- GI50 [1]: > 100 µM (inactive)
- GI50 [2]: > 100 µM (inactive)
- GI50 [3]: > 100 µM (inactive)
- GI50 [4]: > 100 µM (inactive)
- GI50 [5]: > 100 µM (inactive)
- GI50 [6]: > 100 µM (inactive)
- GI50 [7]: > 100 µM (inactive)
- GI50 [8]: > 100 µM (inactive)
- GI50 [9]: > 100 µM (inactive)
- GI50 [10]: > 100 µM (inactive)
- GI50 [11]: > 100 µM (inactive)
- GI50 [12]: > 100 µM (inactive)
- GI50 [13]: > 100 µM (inactive)
- GI50 [15]: > 100 µM (inactive)
- GI50 [16]: > 100 µM (inactive)
- GI50 [17]: > 100 µM (inactive)
- GI50 [18]: > 100 µM (inactive)
- GI50 [19]: > 100 µM (inactive)
- GI50 [20]: > 100 µM (inactive)

SMILES: CCN(CC)CCNc1ccc([N+](=O)[O-])c2nc3ccc(OC)cc3c(N)c12
- GI50 [1]: 1.16 µM (inactive)
- GI50 [2]: 1.7 µM (inactive)
- GI50 [3]: 0.394 µM (active)
- GI50 [4]: 0.0826 µM (active)
- GI50 [5]: 1.64 µM (inactive)
- GI50 [6]: 1.65 µM (inactive)
- GI50 [7]: 1.05 µM (active)
- GI50 [8]: 1.67 µM (inactive)
- GI50 [9]: 1.37 µM (inactive)
- GI50 [10]: 1.36 µM (inactive)
- GI50 [11]: 2.32 µM (inactive)
- GI50 [12]: 1.77 µM (inactive)
- GI50 [13]: 0.151 µM (active)
- GI50 [14]: 1.27 µM (inactive)
- GI50 [15]: 1.7 µM (inactive)
- GI50 [16]: 0.191 µM (active)
- GI50 [17]: 1.4 µM (inactive)
- GI50 [18]: 1.22 µM (inactive)
- GI50 [19]: 1.62 µM (inactive)
- GI50 [20]: 0.172 µM (active)
